Read-outs that look alike come from different tables or passages of the source.
Test system: P. aeruginosa isolates
Assay: Phase 2 study: MIC of P. aeruginosa isolates to levofloxacin
Assay type: cell-based
Settings: Pseudomonas aeruginosa
Experimental: Efficacy was evaluated by microbiologic assessment of sputum samples, time to need for anti-pseudomonal antimicrobials, the Cystic Fibrosis Questionaire-Revised (CFQ-R), and pulmonary function tests. […] Pair-wise comparisons between all the treatment arms were conducted as secondary analyses.

SMILES: C[C@H]1COc2c(N3CCN(C)CC3)c(F)cc3c(=O)c(C(=O)O)cn1c23 [Levofloxacin, levofloxacin]
- MIC90 (672 h, MITT, combined 240 mg QD and BID, Day 28, read-out: Highest MIC, MIC90): 32 µg/mL
- MIC50 (672 h, MITT, combined 240 mg QD and BID, Day 28, read-out: MIC50 (all organisms)): 4 µg/mL
- MIC90 (672 h, MITT, combined 240 mg QD and BID, Day 28, read-out: MIC90 (all organisms)): 16 µg/mL
- MIC50 (672 h, Table 14, EE, 120 mg QD, Day 28, read-out: MIC50 (all organisms)): 8 µg/mL
- MIC90 (672 h, Table 14, EE, 120 mg QD, Day 28, read-out: MIC90 (all organisms)): 32 µg/mL
- MIC50 (672 h, Table 14, EE, 240 mg BID, Day 28, read-out: MIC50 (all organisms)): 8 µg/mL
- MIC90 (672 h, Table 14, EE, 240 mg BID, Day 28, read-out: MIC90 (all organisms)): 32 µg/mL
- MIC50 (672 h, Table 14, EE, 240 mg QD, Day 28, read-out: MIC50 (all organisms)): 8 µg/mL
- MIC90 (672 h, Table 14, EE, 240 mg QD, Day 28, read-out: MIC90 (all organisms)): 16 µg/mL
- MIC50 (672 h, Table 14, EE, combined 240 mg QD and BID, Day 28, read-out: MIC50 (all organisms)): 8 µg/mL
- MIC90 (672 h, Table 14, EE, combined 240 mg QD and BID, Day 28, read-out: MIC90 (all organisms)): 32 µg/mL
- MIC (672 h, read-out: Highest MIC to levofloxacin, mean (SD), MITT, 120 mg QD, Day 28): 12.7 µg/mL
- MIC (672 h, read-out: Highest MIC to levofloxacin, mean (SD), MITT, 240 mg BID, Day 28): 17.9 µg/mL
- MIC (672 h, read-out: Highest MIC to levofloxacin, mean (SD), MITT, 240 mg QD, Day 28): 9.17 µg/mL
- MIC (672 h, read-out: Highest MIC to levofloxacin, mean (SD), MITT, combined 240 mg QD and BID, Day 28): 13.5 µg/mL
- MIC (672 h, read-out: MIC to levofloxacin (all organisms), mean (SD), EE, 120 mg QD, Day 28): 8.9 µg/mL
- MIC (672 h, read-out: MIC to levofloxacin (all organisms), mean (SD), EE, 240 mg BID, Day 28): 10.1 µg/mL
- MIC (672 h, read-out: MIC to levofloxacin (all organisms), mean (SD), EE, 240 mg QD, Day 28): 6 µg/mL
- MIC (672 h, read-out: MIC to levofloxacin (all organisms), mean (SD), EE, combined 240 mg QD and BID, Day 28): 8 µg/mL
- MIC (672 h, read-out: MIC to levofloxacin (all organisms), mean (SD), MITT, 120 mg QD, Day 28): 8.8 µg/mL
- MIC (672 h, read-out: MIC to levofloxacin (all organisms), mean (SD), MITT, 240 mg BID, Day 28): 9.9 µg/mL
- MIC (672 h, read-out: MIC to levofloxacin (all organisms), mean (SD), MITT, 240 mg QD, Day 28): 5.9 µg/mL
- MIC (672 h, read-out: MIC to levofloxacin (all organisms), mean (SD), MITT, combined 240 mg QD and BID, Day 28): 7.9 µg/mL
- MIC (672 h, read-out: MIC to levofloxacin (all organisms), mean (SD), Table 14, EE, 120 mg QD, Day 28): 12.9 µg/mL
- MIC (672 h, read-out: MIC to levofloxacin (all organisms), mean (SD), Table 14, EE, 240 mg BID, Day 28): 18 µg/mL
- MIC (672 h, read-out: MIC to levofloxacin (all organisms), mean (SD), Table 14, EE, 240 mg QD, Day 28): 9.42 µg/mL
- MIC (672 h, read-out: MIC to levofloxacin (all organisms), mean (SD), Table 14, EE, combined 240 mg QD and BID, Day 28): 13.6 µg/mL
- MIC50 (EE and MITT, 120 mg QD, baseline, read-out: MIC50 for P. aeruginosa isolates): 8 µg/mL
- MIC90 (EE and MITT, 120 mg QD, baseline, read-out: MIC90 for P. aeruginosa isolates): 32 µg/mL
- MIC50 (EE and MITT, 240 mg BID, baseline, read-out: MIC50 for P. aeruginosa isolates): 6 µg/mL
- MIC90 (EE and MITT, 240 mg BID, baseline, read-out: MIC90 for P. aeruginosa isolates): 32 µg/mL
- MIC50 (EE and MITT, 240 mg QD, baseline, read-out: MIC50 for P. aeruginosa isolates): 4 µg/mL
- MIC90 (EE and MITT, 240 mg QD, baseline, read-out: MIC90 for P. aeruginosa isolates): 32 µg/mL
- MIC (all patients, baseline (n=592 isolates), read-out: Median baseline MIC of all isolates): 4 µg/mL
- MIC90 (read-out: Baseline MIC90 of all isolates): 16 µg/mL
- MIC (read-out: Highest MIC to levofloxacin, mean (SD), MITT, 120 mg QD, Day 1): 14.3 µg/mL
- MIC (read-out: Highest MIC to levofloxacin, mean (SD), MITT, 240 mg BID, Day 1): 11.4 µg/mL
- MIC (read-out: Highest MIC to levofloxacin, mean (SD), MITT, 240 mg QD, Day 1): 9.06 µg/mL
- MIC (read-out: Highest MIC to levofloxacin, mean (SD), MITT, combined 240 mg QD and BID, Day 1): 10.2 µg/mL
- MIC (read-out: MIC to levofloxacin (all organisms), mean (SD), EE, 120 mg QD, Day 1): 11.5 µg/mL
- MIC (read-out: MIC to levofloxacin (all organisms), mean (SD), EE, 240 mg BID, Day 1): 6.8 µg/mL
- MIC (read-out: MIC to levofloxacin (all organisms), mean (SD), EE, 240 mg QD, Day 1): 6.3 µg/mL
- MIC (read-out: MIC to levofloxacin (all organisms), mean (SD), EE, combined 240 mg QD and BID, Day 1): 6.5 µg/mL
- MIC (read-out: MIC to levofloxacin (all organisms), mean (SD), MITT, 120 mg QD, Day 1): 11 µg/mL
- MIC (read-out: MIC to levofloxacin (all organisms), mean (SD), MITT, 240 mg BID, Day 1): 6.8 µg/mL
- MIC (read-out: MIC to levofloxacin (all organisms), mean (SD), MITT, 240 mg QD, Day 1): 6.1 µg/mL
- MIC (read-out: MIC to levofloxacin (all organisms), mean (SD), MITT, combined 240 mg QD and BID, Day 1): 6.4 µg/mL
- MIC (read-out: MIC to levofloxacin (all organisms), mean (SD), Table 14, EE, 120 mg QD, Day 1): 15 µg/mL
- MIC (read-out: MIC to levofloxacin (all organisms), mean (SD), Table 14, EE, 240 mg BID, Day 1): 11.6 µg/mL
- MIC (read-out: MIC to levofloxacin (all organisms), mean (SD), Table 14, EE, 240 mg QD, Day 1): 9.35 µg/mL
- MIC (read-out: MIC to levofloxacin (all organisms), mean (SD), Table 14, EE, combined 240 mg QD and BID, Day 1): 10.5 µg/mL

Reference: patent US10792289B2 (Horizon Orphan LLC, priority 2009, dated 2020)
